Assay results from patent publication US11066412B2, “Substituted pyrrolo[2,1-a]phthalazines and benzo[g]pyrrolo[2,1-a]phthalazines for the treatment of cancer” (Academia Sinica, priority 2017, dated 2021).
Where two headings read alike, the source gives them in different places.

Assays:
[1] = test system: human SCLC H526 xenografts; test: tumor growth in xenograft-bearing nude mice; type: in vivo; conditions: micelle formulation (Kolliphor/TWEEN 80/PEG400/ethanol/D5W); BO-2768 at 20 mg/kg twice daily; FIG. 12, panel A
Procedure: Athymic nude mice bearing the nu/nu gene were obtained from the National Laboratory Animal Center (Taipei, Taiwan). Male nude mice (6 weeks or older weighing 20-24 g or more) were used for all human tumor xenografts. The tested compounds were intravenously administered through tail vein. Tumor volume was determined by measuring the length x width x height (or width) with calipers. […] For tumor-bearing nude mice during the course of the experiment, the % body weight changes refer to: (the total weight on reading day/the total weight on day treatment started)×100.
In all experiments, the tumor cells were subcutaneously implanted in nude mice, and the BO-2590L was administered via tail vein when the tumor size reaching approximate 100 mm^3. […]
To confirm the therapeutic activity of BO-2590L, comparative experiments carried out by known chemotherapeutic agents, such as vatanalib and cisplatin, were also performed. Briefly, the H526 xenograft-bearing mice were divided into 4 groups which were treated with vehicle, BO-2590L (10 mg/kg, QD×9), vatalanib (100 mg/kg, QD×9), and cisplatin (4 mg/kg, Q2D×3), respectively. Results are illustrated in FIG. 11.
Results are illustrated in FIGS. 12 and 13.

H82 = test: in vitro cytotoxicity to SCLC cells; type: cell-based, human; conditions: Table 3
Procedure: (§1) After a 72-hr incubation in various concentrations of the newly synthesized compounds, the cytotoxic effects of them to all cell lines were determined by the PrestoBlue®(Invitrogen) assay using a microplate spectrophotometer. Briefly, at the end of treatment, an aliquot of PrestoBlue® solution was added and then cells were incubated at 37° C. for 1-2 hr. The absorbance at 570 and 600 nm was measured with a microplate reader. […] The ICso is defined by the concentration required to inhibit tumor cell growth by 50%. Data represent the mean±STDEV of three to six independent experiments for each compound.

H146 = test: in vitro cytotoxicity to SCLC cells; type: cell-based, human; conditions: Table 3
Procedure: as §1

H211 = test: in vitro cytotoxicity to SCLC cells; type: cell-based, human; conditions: Table 3
Procedure: as §1

H1417 = test: in vitro cytotoxicity to SCLC cells; type: cell-based, human; conditions: Table 3
Procedure: as §1

colon cancer HCT-116 = test: in vitro cytotoxicity, PrestoBlue assay; type: cell-based, human; conditions: Table 2
Procedure: (§2) All representative compounds of Formulae (I-A) and (I-B) were first evaluated for their in vitro cytotoxicity to human lymphoblastic leukemia cell line (CCRF-CEM) and its vinblastine-resistant sub-cell line (CCRF-CEM/VBL) (see Table 1).
as §1

pancreatic cancer PacaS1 = test: in vitro cytotoxicity, PrestoBlue assay; type: cell-based, human; conditions: Table 2
Procedure: as §2, §1

[2] = test system: vinblastine-resistant sub-cell line (CCRF-CEM/VBL); test: in vitro cytotoxicity, PrestoBlue assay; type: cell-based, human
Procedure: as §2, §1

[3] = test system: non-small cell lung cancer H460; test: in vitro cytotoxicity, PrestoBlue assay; type: cell-based, human; conditions: Table 2
Procedure: as §2, §1

CD31 = test: immunohistochemical staining of tumor xenograft sections, blood vessels; type: in vivo, nude mice; conditions: for blood vessel in tumors (anti-CD31 staining): compared to vehicle control, FIG. 15, panel A; for CD31 marker intensity compared to control: day 9, H526 tumors, FIG. 15, panel B
Procedure: (§3) Tumor xenograft tissue sections on the slides were deparaffinized in xylene twice for 7 min each time. The slides were then rehydrated in graded ethanol, serially from 100% to 70%, followed by rinsing in dH2O. Antigen retrieval was performed using citrate buffer (0.01M, pH 6.0) with incubation in a cooker for 50 mins followed by ambient temperature cooling for 30 min. and then dH2O rinsing. Later slides were subjected to immunohistochemical (IHC) staining with primary antibodies (anti-rabbit CD31 antibody and anti-mouse γ-H2AX antibody) obtained from Abeam® following the manufacturer's instructions (Novolink Polymer Detection system, Leica Biosystems, Wetzlar, Germany).^11 After IHC processing, the slides were scanned digitally using the Panoramic 250 Flash II whole slide scanner and analyzed by 3DHISTECH Panoramic viewer software (3DHISTECH Ltd., Budapest, Hungary).
The density of blood vessels within the tumors was evaluated by immunofluorescence staining using anti-CD31 (a marker of endothelial cells) (FIG. 15, panel A). […] After IHC, slides were scanned by Panoramic 250 Flash II whole slide scanner. The expression of CD31 in tissue sections were determined from 15 different fields of 3 tumor sections and counts were averaged using 3DHISTECH Panoramic viewer software (3DHISTECH Ltd., Budapest, Hungary). […] However, on day 9, CD31 marker intensity was reduced to 4% in tumors treated with BO-2590L or vatalanib compared to control (FIG. 15, panel B). […] On day 9, CD31 marker intensity in cisplatin-treated tumor was 19% of control, which was less extent than BO-2590L or vatalanib.

γ-H2AX = test: immunohistochemical staining of tumor xenograft sections, DNA damage marker; type: in vivo, nude mice; conditions: for γ-H2AX in tumors: FIG. 16, panel A; for γ-H2AX signals, quantitative analysis: FIG. 16, panel B
Procedure: as §3, with “3[…]” for “3DHISTECH”, “(3[…]” for “(3DHISTECH”
As BO-2590L is a DNA damaging agent, we thus investigated the effect of BO-2590L on the level of a DNA damage marker, γ-H2AX, via the use of immunohistochemical staining.

[4] = test system: small cell lung cancer H526; test: in vitro cytotoxicity, PrestoBlue assay; type: cell-based, human; conditions: read-out: IC50 H526
[5] = body weight changes of xenograft-bearing nude mice; type: in vivo; conditions: H526 xenograft mice
Procedure: Athymic nude mice bearing the nu/nu gene were obtained from the National Laboratory Animal Center (Taipei, Taiwan). Male nude mice (6 weeks or older weighing 20-24 g or more) were used for all human tumor xenografts. The tested compounds were intravenously administered through tail vein. Tumor volume was determined by measuring the length x width x height (or width) with calipers. The vehicle used for the tested compounds was normal saline (0.9% NaCl isotonic solution). For tumor-bearing nude mice during the course of the experiment, the % body weight changes refer to: (the total weight on reading day/the total weight on day treatment started)×100.

[6] = test system: human lymphoblastic leukemia cell line (CCRF-CEM); test: in vitro cytotoxicity, PrestoBlue assay; type: cell-based; conditions: 72-hr incubation; mean ± STDEV of three to six experiments; read-out: IC50 CCRF-CEM
Procedure: as §2, §1

H526 cells = test: single cell electrophoresis (comet) assay; type: cell-based; conditions: FIG. 2
Description: The data is the average of 3 independent experiments.
To this purpose, cells were encapsulating in a low-melting-point agarose suspension on a microscope slide, then were lysed in neutral or alkaline (pH>13) condition, and electrophoresis of the suspended lysed cells. The term “comet” refers to the pattern of DNA migration through the electrophoresis gel, which often resembles a comet, and the intensity of the comet tail relative to the head reflects the number of DNA breaks.

EA.hy926 cells = test: Tube-Formation Assay; type: cell-based; conditions: 24 hr pre-treatment, 48-hr incubation on matrigel; FIG. 4
Procedure: Angiogenesis is the process of generating new blood vessels derived as extensions from the existing vasculature. Performance of vascular behavior or monitoring tube formation can determine whether the compound is capable of interrupting angiogenesis. In this example, whether the compound of formula (I) interrupted angiogenesis was investigated using Tube-Formation Assay.
Briefly, EA.hy926 cells were treated with various concentrations of BO-2590 for 24 hr. After that, cells (5×10^5 cells/well) were suspended in 100 μl medium containing 1% FCS and subsequently seeded onto 96-well plate pre-coated with matrigel 1 h at 37° C. After a 48-hr incubation, tube-formation ability was examined under a phase microscope.

N.N.[Cl][Pt][Cl] [Cisplatin, reference compound]
tumor size [1]: slowly increased in size
IC50 (H82): 1.75 ± 0.39 µM
IC50 (H146): 10.2 ± 2.99 µM
IC50 (H211): 0.78 ± 0.46 µM
IC50 (H1417): 40.8 ± 5.97 µM
IC50 (colon cancer HCT-116): 9.17 ± 0.67 µM
IC50 Paca SI (pancreatic cancer PacaS1): 27.04 ± 0.98 µM
IC50 ([2]; 72-hr incubation, mean ± STDEV of three to six experiments, read-out: IC50 CEM/VBL): 8.88 ± 1.86 µM
resistance factor (IC50 CEM/VBL vs IC50 of the parent cell line) ([2]; number in brackets): 0.54 ×
IC50 [3]: 5.11 ± 0.22 µM
blood vessel in tumors (anti-CD31 staining) (CD31): significantly reduced blood vessel
CD31 marker intensity compared to control (CD31): 19%
γ-H2AX in tumors (γ-H2AX): remarkably increased in γ-H2AX
γ-H2AX signals, quantitative analysis (γ-H2AX): time-dependently increased in γ-H2AX signals
IC50 ([4]; Table 2): 0.73 ± 0.07 µM
IC50 ([4]; Table 3): 1.75 ± 0.71 µM
deleterious effects on the bodyweight of the test animals ([5]; micelle formulation, FIG. 12, panel B): none
body weight ([5]; BO-2590L 10 mg/kg for consecutive 9 days, cisplatin 4 mg/Kg, FIG. 11, panel B): severe body weight lost
IC50 [6]: 16.5 ± 0.9 µM
DNA damage (comet tail) (H526 cells): inducing DNA breaks in a dose dependent manner

Clc1ccc(Nc2nnc(Cc3ccncc3)c3ccccc23)cc1 [vatalanib]
blood vessel in tumors (anti-CD31 staining) (CD31): significantly reduced blood vessel
CD31 marker intensity compared to control (CD31): 4%
γ-H2AX in tumors (γ-H2AX): much less level
γ-H2AX signals, quantitative analysis (γ-H2AX): moderate level of γ-H2AX
tube formation (EA.hy926 cells): suppressed tube formation, but at much higher concentrations
